Experimental data: patent US10590143B2, “Herbicidally active (alkynyl-phenyl)-substituted cyclic dione compounds and derivatives thereof” (Syngenta Limited, priority 2013, dated 2020)
Where two headings read alike, the source gives them in different places.

Assays:
Format in all cases: in vivo
[1] = tested on: Abutilon theophrasti (ABUTH); test: Biological Example 1 glasshouse assay for herbicidal activity; conditions: 312 h, 13 days after application, read-out: percentage phytotoxicity ABUTH
Protocol: (§1) Seeds of a variety of test plant species were sown in standard soil** in pots. After cultivation for one day (pre-emergence) or after 8 days cultivation (post-emergence) under controlled conditions in a glasshouse (at 24/16° C., day/night; 14 hours light; 65% humidity), the plants were sprayed with an aqueous spray solution derived from the formulation of the technical active ingredient (the test herbicide) in acetone/water (50:50) solution containing 0.5% Tween 20 (polyoxyethylene sorbitan monolaurate, CAS Reg. No. 9005-64-5). The test plants were then grown on under controlled conditions in a glasshouse (at 24/16° C., day/night; 14 hours light; 65% humidity) and watered twice daily. 13 Days after application of the test herbicide, for pre- and post-emergence, the test was evaluated visually for percentage phytotoxicity to each plant (where 100%=total damage to plant; 0%=no damage to plant). Generally, each test herbicide is only tested on 1 plant per plant species for each application rate tested and for each application timing. **The “standard soil” in Biological Example 1 is usually a “sand” or “sandy loam” type of soil.
(§2) Dicotyledonous weeds: ABUTH=Abutilon theophrasti; AMARE=Amaranthus retroflexus. Grassy monocotyledonous weeds: SETFA=Setaria faberi; ALOMY=Alopecurus myosuroides; ECHCG=Echinochloa crus-galli; ZEAMX=Zea mays (corn, maize, e.g. volunteer corn).

[2] = tested on: Alopecurus myosuroides (ALOMY); test: as above; conditions: 312 h, 13 days after application, read-out: percentage phytotoxicity ALOMY
Protocol: as §1, §2

[3] = tested on: Amaranthus retroflexus (AMARE); test: as above; conditions: Amaranthus retroflexus, 312 h, 13 days after application, read-out: percentage phytotoxicity AMARE
Protocol: as §1, §2

[4] = tested on: Echinochloa crus-galli (ECHCG); test: as above; conditions: Echinochloa crus-galli, 312 h, 13 days after application, read-out: percentage phytotoxicity ECHCG
Protocol: as §1, §2

Setaria faberi (SETFA) [5] = test: as above; conditions: 312 h, 13 days after application, read-out: percentage phytotoxicity SETFA
Protocol: as §1, §2

[6] = tested on: Zea mays (ZEAMX, corn, maize, e.g. volunteer corn); test: as above; conditions: Zea mays, 312 h, 13 days after application, read-out: percentage phytotoxicity ZEAMX
Protocol: as §1, §2

[7] = tested on: Digitaria sanguinalis (DIGSA); test: Biological Example 3 glasshouse assay for herbicidal activity, using various adjuvant systems; conditions: post-emergence, 8 g/ha, 14 or 15 DAA; adjuvant 0.5% v/v + 1.0% AMS + 12.5% IPA: TEHP (A3-A7), Adigor (A8, P1, P2, P4), Hexamoll DINCH (A1)
Protocol: (§3) • Materials and Methods • Herbicide Application: Post-emergence foliar spray application, 200 L/ha, usually one or two replicates for the weeds (depending on application rate), and two replicates for soybean. • Climate: Standard warm conditions (tropical), in glasshouse. Specifically, the glasshouse bay conditions are 24° C./18° C. day/night; 16/8 hours light/dark; 65% humidity. • Plants: The herbicidal application takes place at the following growth stages for plants which include inter alia one or more of the following plants (usually the herbicidal application takes place on at least the following plants: DIGSA, ELEIN, SETFA, ZEAMX, GLXMA Nikko, and GLXMA TMG133, and often also either BRADC or BRAPP): • Brachiaria decumbens (BRADC)—growth stage (GS) 12 or 13 (or GS 12)—or, if BRADC is not used, then usually Brachiaria platyphylla (BRAPP)—growth stage 12 or 13 • Digitaria sanguinalis (DIGSA)—growth stage 12 or 13 • Eleusine indica (ELEIN)—growth stage 12 or 13 • Setaria faberi (SETFA)—growth stage 12 or 13 • Echinochloa crus-galli (ECHCG)—growth stage 12 or 13 • Sorghum halepense (annual) (SORHA)—growth stage 12 or 13 • Panicum dichotomiflorum (PANDI)—growth stage 12 or 13 • Zea mays (ZEAMX, maize/corn, e.g. can occur as volunteer corn) cultivar “Garland”—growth stage 12 or 13 • Glycine max (GLXMA, soybean) cultivar “Nikko”—growth stage: 1st trifoliate • Glycine max (GLXMA, soybean) cultivar “TMG133”—which is Roundup Ready™ glyphosate-tolerant soybean cultivar TMG133 (typically available from Monsanto in Brazil)—growth stage: 1st trifoliate. • Herbicidal Compositions Tested:
(§4) Each test compound is applied with one of the following adjuvant systems (all percentages are final concentrations in the aqueous spray mixture): • Adjuvant system 1: 0.5% v/v Adigor™*, 1.0% v/v AMS (ammonium sulphate) and 12.5% v/v IPA (isopropyl alcohol). • Adjuvant system 2: 0.5% v/v Hexamoll™ DINCH**, 1.0% v/v AMS (ammonium sulphate) and 12.5% v/v IPA (isopropyl alcohol). • Adjuvant system 3: 0.5% v/v tris-(2-ethylhexyl)phosphate (“TEHP”), 1.0% v/v AMS (ammonium sulphate) and 12.5% v/v IPA (isopropyl alcohol). ***Adigor™ (currently available in many countries from Syngenta) is an emulsifiable concentrate which consists of: • (i) ethoxylated alcohols, which typically includes ethoxylated higher alcohols (e.g. ethoxylates of alcohols wherein the alcohols are within the range of C12-C22); and • (ii) a mixture of heavy aromatic hydrocarbons, which typically includes (e.g. includes 50% or more by weight of the heavy aromatic hydrocarbons of) a mixture of naphthalenes each of which is substituted by one or more alkyls wherein the alkyl(s) in total have 1-4 carbon atoms per naphthalene molecule (e.g. Solvesso 200 ND™); and • (iii) about 47% w/w and/or about 45% w/v (with respect to the emulsifiable concentrate) of methylated rapeseed oil (rapeseed oil methyl ester) (e.g. Agnique ME 18 RD-F™), as an adjuvant. **Hexamoll™ DINCH™ is 1,2-cyclohexane dicarboxylic acid di-isononyl ester
(§5) Seeds of the weed (including volunteer) plants, typically including inter alia Digitaria sanguinalis (DIGSA), Eleusine indica (ELEIN), Setaria faberi (SETFA), Zea mays (ZEAMX, corn), and sometimes also [either Brachiaria decumbens (BRADC) or Brachiaria platyphylla (BRAPP)], are sown in seed trays (troughs) containing clay loam soil (pH 7.0, 2.2% organic matter, “Trough Mix A”); and soybean seed is sown in pots containing the same soil with 3 soybean seedlings per pot. The plants are sprayed with the test herbicide when they reach the growth stages mentioned above.
(§6) The test herbicidal solutions are prepared by mixing the appropriate aliquots of the test substance(s) and one of the adjuvant systems indicated above*** in deionised water to give the desired treatment concentration.
(§7) The herbicidal application is made as a foliar spray, using a tracksprayer. Following the herbicidal application, the plants are watered twice per day for the duration of the test. […]

Eleusine indica (ELEIN) = test: as above; conditions: post-emergence, 8 g/ha, 14 or 15 DAA; adjuvant 0.5% v/v + 1.0% AMS + 12.5% IPA: TEHP (A3-A7), Adigor (A8, P1, P2, P4), Hexamoll DINCH (A1)
Protocol: as §3, §4, §5, §6, §7

Setaria faberi (SETFA) [8] = test: as above; conditions: post-emergence, 8 g/ha, 14 or 15 DAA; adjuvant 0.5% v/v + 1.0% AMS + 12.5% IPA: TEHP (A3-A7), Adigor (A8, P1, P2, P4), Hexamoll DINCH (A1)
Protocol: as §3, §4, §5, §6, §7

Zea mays (ZEAMX, corn) = test: as above; conditions: post-emergence, 8 g/ha, 14 or 15 DAA; adjuvant 0.5% v/v + 1.0% AMS + 12.5% IPA: TEHP (A3-A7), Adigor (A8, P1, P2, P4), Hexamoll DINCH (A1)
Protocol: as §3, §4, §5, §6, §7

[9] = post-emergence, post-emergence, 30 g/ha

Structure (SMILES) | pest or weed control at 250 g/ha ([1]; post-emergence, post-emergence) | pest or weed control at 250 g/ha ([1]; pre-emergence, pre-emergence) | pest or weed control at 250 g/ha ([2]; post-emergence) | pest or weed control at 250 g/ha ([2]; pre-emergence) | pest or weed control at 250 g/ha ([3]; post-emergence, post-emergence) | pest or weed control at 250 g/ha ([3]; pre-emergence, pre-emergence) | pest or weed control at 250 g/ha ([4]; post-emergence, post-emergence) | pest or weed control at 250 g/ha ([4]; pre-emergence, pre-emergence) | pest or weed control at 250 g/ha (Setaria faberi (SETFA) [5]; post-emergence, post-emergence) | pest or weed control at 250 g/ha (Setaria faberi (SETFA) [5]; pre-emergence, pre-emergence) | pest or weed control at 250 g/ha ([6]; post-emergence, post-emergence) | pest or weed control at 250 g/ha ([6]; pre-emergence, pre-emergence) | percentage control of (percentage phytotoxicity on) Digitaria sanguinalis (DIGSA) [7] | percentage control of (percentage phytotoxicity on) Eleusine indica (ELEIN) (Eleusine indica (ELEIN)) | percentage control of (percentage phytotoxicity on) Setaria faberi (SETFA) (Setaria faberi (SETFA) [8]) | other results
CC#Cc1cc(F)c(C2C(=O)C3CCC(C3)C2=O)c(OCCOC)c1 (centres unmarked) [Compound A5] | 30% | 20% | 70% | 40% | 30% | 50% | 100% | 80% | 80% | 60% | 100% | 90% | 0% | 0% | 25% | 
CC#Cc1cc(F)c(C2C(=O)C3CCC(C3)C2=O)c(OCC(F)(F)F)c1 (centres unmarked) [Compound A6] | 20% | 30% | 80% | 60% | 50% | 60% | 100% | 80% | 80% | 70% | 100% | 80% | 5% | 5% | 25% | percentage control of (percentage phytotoxicity on) Zea mays (ZEAMX, corn) (Zea mays (ZEAMX, corn)): 0%
CC#Cc1cc(Br)c(C2C(=O)C3CCC(C3)C2=O)c(OC)c1 (centres unmarked) [Compound A3] | 10% | 10% | 100% | 100% | 20% | 20% | 100% | 100% | 100% | 100% | 100% | 100% |  | 55% |  | pest or weed control at 30 g/ha [1, 9]: 0%; pest or weed control at 30 g/ha ([2]; post-emergence, 30 g/ha): 70%; pest or weed control at 30 g/ha [3, 9]: 0%; pest or weed control at 30 g/ha [4, 9]: 90%; pest or weed control at 30 g/ha (Setaria faberi (SETFA) [5]; [9]): 80%; pest or weed control at 30 g/ha [6, 9]: 90%
